target: recombinant GST-tagged MDM2 / p53-peptide interaction (Homo sapiens, UniProt Q00987); assay: HTRF assay of inhibition of the p53-MDM2 interaction; format: binding; details: 0.02% BSA
Procedure: The ability of the compounds to inhibit the interaction between p53 and MDM2 proteins was measured by an HTRF (homogeneous time-resolved fluorescence) assay in which recombinant GST-tagged MDM2 binds to a peptide that resembles the MDM2-interacting region of p53 (Lane et al.). Binding of GST-MDM2 protein and p53-peptide (biotinylated on its N-terminal end) is registered by the FRET (fluorescence resonance energy transfer) between Europium (Eu)-labeled anti-GST antibody and streptavidin-conjugated Allophycocyanin (APC).
[…] Add 10 uL diluted compounds (1:5 dilution in reaction buffer) to each well, mix by shaking. Add 20 uL biotinylated p53 peptide (180 nM working solution) in reaction buffer to each well and mix on shaker. Incubate at 37° C. for h. Add 20 uL streptavidin-APC and Eu-anti-GST antibody mixture (6 nM Eu-anti-GST and 60 nM streptavidin-APC working solution) in TBS buffer with 0.2% BSA, shake at room temperature for 30 minutes and read using a TRF-capable plate reader at 665 and 615 nm (Victor 5, Perkin ElmerWallac). If not specified, the reagents were purchased from Sigma Chemical Co.

recombinant GST-tagged MDM2 / p53-peptide interaction, sequence (Q00987 whole entry): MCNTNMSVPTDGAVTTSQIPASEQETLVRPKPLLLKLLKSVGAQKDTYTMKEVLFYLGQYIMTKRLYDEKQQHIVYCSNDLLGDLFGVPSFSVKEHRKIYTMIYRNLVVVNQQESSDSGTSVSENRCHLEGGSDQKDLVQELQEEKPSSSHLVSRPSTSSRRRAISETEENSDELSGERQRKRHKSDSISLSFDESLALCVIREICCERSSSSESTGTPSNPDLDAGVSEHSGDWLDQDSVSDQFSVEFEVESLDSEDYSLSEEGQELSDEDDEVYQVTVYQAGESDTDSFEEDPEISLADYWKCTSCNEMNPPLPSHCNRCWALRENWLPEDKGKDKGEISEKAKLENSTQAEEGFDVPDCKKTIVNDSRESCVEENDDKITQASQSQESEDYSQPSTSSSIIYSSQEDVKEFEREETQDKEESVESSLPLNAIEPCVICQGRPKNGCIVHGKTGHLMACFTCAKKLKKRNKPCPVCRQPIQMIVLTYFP

SMILES	IC50 [µM]
Cc1ccc(F)cc1[C@@H]1NC(=O)C[C@H](c2cc(Cl)ccc2OC(C)(C)C(=O)NCCN2CCCCC2)[C@@]12C(=O)Nc1cc(Cl)ccc12 (racemic) [Example 8, Racemic (2′S,3S,4′R)-6-chloro-4′-{5-chloro-2-[1-methyl-1-(2-piperidin-1-yl-ethylcarbamoyl)-ethoxy]-phenyl}-2′-(5-fluoro-2-methyl-phenyl)-spiro[3H-indole-3,3′-piperidine]-2,6′(1H)-dione]	0.327
Cc1ccc(F)cc1[C@@H]1NC(=O)C[C@H](c2cc(Cl)ccc2OC2(C(=O)NS(=O)(=O)c3ccc(F)cc3)CCC2)[C@@]12C(=O)Nc1cc(Cl)ccc12 (racemic) [Example 11, Racemic (2′S,3S,4′R)-6-chloro-4′-{5-chloro-2-[1-(4-fluoro-benzenesulfonylaminocarbonyl)-cyclobutoxy]-phenyl}-2′-(5-fluoro-2-methyl-phenyl)-spiro[3H-indole-3,3′-piperidine]-2,6′(1H)-dione]	0.065
CN(C)C(=O)C(C)(C)Oc1ccc(Cl)cc1[C@H]1CC(=O)N[C@@H](c2cc(Cl)ccc2F)[C@]12C(=O)Nc1cc(Cl)ccc12 (racemic) [Example 34d, (2′R,3S,4′R)-6-chloro-4′-[5-chloro-2-(1-dimethylcarbamoyl-1-methyl-ethoxy)-phenyl]-2′-(2-fluoro-5chloro-phenyl)spiro[3H-indole-3,3′-piperidine]-2,6′(1H)-dione]	0.155

Second part, the compound after the results:

IC50 [µM]	SMILES
0.278	Cc1ccc(F)cc1[C@@H]1NC(=O)C[C@H](c2cc(Cl)ccc2OC(C)(C)C(=O)NC2CCN(C)CC2)[C@@]12C(=O)Nc1cc(Cl)ccc12 (racemic) [Example 1g, Racemic (2′S,3S,4′R)-6-chloro-4′-{5-chloro-2-[1-methyl-1-(1-methyl-piperidin-4-ylcarbamoyl)-ethoxy]-phenyl}-2′-(5-fluoro-2-methyl-phenyl)spiro[3H-indole-3,3′-piperidine]-2,6′(1H)-dione]
0.054	Cc1ccc(F)cc1[C@@H]1NC(=O)C[C@H](c2cc(Cl)ccc2OC(C)(C)C(=O)N2CCC(F)(F)CC2)[C@@]12C(=O)Nc1cc(Cl)ccc12 [Example 29b, (2′S,3S,4′R)-6-chloro-4′-{5-chloro-2-[2-(4,4-difluoro-piperidin-1-yl)-1,1-dimethyl-2-oxo-ethoxy]-phenyl}-2′-(5-fluoro-2-methyl-phenyl)spiro[3H-indole-3,3′-piperidine]-2,6′(1H)-dione]

Source: patent US7776875B2, “Spiroindolinone derivatives” (Hoffman-La Roche Inc., priority 2007, dated 2010)
